Each structure is given as a SMILES string. Where “and” joins values, the source holds several entries; their conditions need not be identical. Equal values may be shown once. Where a name gives a salt, the structure may show the parent alone.

These results are taken from patent publication US20250011881A1, “MYC-HSF1 DUAL AMPLIFICATION AS A BIOMARKER FOR CANCER TREATMENT” (The Trustees of Indiana University, priority 2023, published 2025).

One experiment has as its system ovarian cancer cells with (OVCAR8, OVCAR4) or without (OVSAHO, CAOV3) MYC-HSF1 amplification. Put plainly: Epigenetic inhibitor drug screen, cell viability (Cell Titer Blue).
Settings: not given
Type of experiment: cell-based. (In general: Resazurin is reduced to fluorescent resorufin, in cell work by metabolically active cells.)
For `C/C(O)=C(\C#N)C(=O)Nc1cc(Br)ccc1Br` [LFM-A13], the “Non Amp - AMP (POC) 10 uM” value is reported as 5.442 POC. Still for that read-out and setting: in the case of `NC(=O)c1cccc2cn(-c3ccc([C@@H]4CCCNC4)cc3)nc12` [MK-4827] it was −0.7556 POC; in that of `N=C1NC(=O)/C(=C/c2ccc(O)cc2)S1` [Mirin], 4.24 POC; in that of `CO[C@@]12[C@H](COC(N)=O)C3=C(C(=O)C(C)=C(N)C3=O)N1C[C@@H]1N[C@@H]12` [Mitomycin C], 14.14 POC.

The same experiment, now with this note: 10 uM, 48 hrs; average relative cell viability (vs 1% DMSO) of non-amplified cells (OVSAHO, CAOV3) minus that of MYC-HSF1 amplified cells (OVCAR8, OVCAR4); positive = greater response in amplified cells.
Regarding `O=c1[nH]cnc2c1ncn2[C@@H]1O[C@H](CO)[C@@H](O)[C@H]1O` [INO-1001], the “Non Amp - AMP (POC) 10 uM” value is given as −1.319 POC. Still for that read-out and setting: for `O=C(O)CNC(=O)c1c(O)c2ccccc2n(Cc2ccccc2)c1=O` [IOX2(Glycine)] the value was 10.17 POC; for `O=C(Nn1nnc2ccccc21)c1ccc(Cl)cc1Cl` [ITSA-1 (ITSA1)], 7.283 POC. Turning to `NC(=O)c1ccc(I)c([N+](=O)[O-])c1` [Iniparib (BSI-201), Iniparib], the “Non Amp - AMP (POC) 10 uM” value was −7.53 POC. On the same count and under the same terms, for `COc1cc2ncnc(Nc3ccc(O)cc3)c2cc1OC` [JANEX-1] the value was −13.67 POC; for `O=C(NCc1ccccc1)c1c(/N=C/c2c(O)ccc3ccccc23)sc2c1CCCC2` [JGB1741], 9.247 POC.

Consider `Nc1nc(Nc2ccc(S(N)(=O)=O)cc2)nn1C(=O)c1c(F)cccc1F` [JNJ-7706621], for which the “Non Amp - AMP (POC) 10 uM” value is −15.24 POC.

In the case of `COc1ccc(C2(CNC(=O)c3ccc(NC(=O)c4ccco4)cc3)CCOCC2)cc1` [JW 55], the “Non Amp - AMP (POC) 10 uM” value is reported as −6.598 POC. With `O=S(=O)(NCCSSCCNS(=O)(=O)c1cc(Cl)ccc1Cl)c1cc(Cl)ccc1Cl` [KC7F2], the “Non Amp - AMP (POC) 10 uM” value was −3.553 POC.

As to `CC(=O)SCC(=O)c1ccc(NS(=O)(=O)c2ccc(OCCCN(C)C)cc2)nc1` [KD 5170], the “Non Amp - AMP (POC) 10 uM” value amounted to 12.43 POC. Still for that read-out and setting: in the case of `O=C(c1ccc(/C=C/c2n[nH]c3ccccc23)cc1)N1CCNCC1` [KW 2449] it was 6.231 POC; in that of `COc1ccc(S(=O)(=O)ON=C2C=C(C)C(=O)C(C)=C2)cc1` [L002], −39.83 POC. Still for that read-out and setting: for `O=C(O)CC[C@H](O)C(=O)O` [L-a-Hydroxyglutaric Acid] the value was −7.873 POC. The same measure, in the same setting: in the case of `Cc1cn(CCN2CCN(c3ccccc3-c3cc(C#N)cc(C(=O)NCCCN4CCCC4)c3)CC2)c2ccccc12` [LLY507] it was −14.82 POC; in that of `Cc1cc(Nc2cc(CN3CCOCC3)c3nc(C)c(Cc4ccc(Cl)cc4F)n3n2)n[nH]1` [LY2784544], −1.068 POC. With `CC(C)OC(=O)CCC/C=C\C[C@@H]1[C@@H](CC[C@@H](O)CCc2ccccc2)[C@H](O)C[C@@H]1O` [Latanoprost], the “Non Amp - AMP (POC) 10 uM” value was −8.842 POC. Turning to `Nc1nc(OCc2cc(Br)cs2)c2[nH]cnc2n1` [Lomeguatrib], the “Non Amp - AMP (POC) 10 uM” value was 9.851 POC. On the same count and under the same terms, for `CN(C)c1ccc(C(=O)NCCCCCCC(=O)NO)cc1` [M344] the value was 22.65 POC; for `CCC1C/C(=C\c2cccnc2)C(=O)/C(=C/c2cccnc2)C1` (centres unmarked) [MCB-613], −5.355 POC; for `C[C@H](NC(=O)CCc1nc2ccccc2c(=O)[nH]1)c1ccccc1` [ME0328], 15.81 POC.

`CCCCCCCc1ccc(CCc2cccc(O)c2C(=O)O)cc1` [MG 149]: the “Non Amp - AMP (POC) 10 uM” value is −0.4614 POC. The same measure, in the same setting: in the case of `O=C(O)[C@]1(Cc2cccc(Nc3nccs3)n2)CC[C@@H](Oc2cccc(Cl)c2F)CC1` [MK-5108 (VX-689)] it was 0.08992 POC; in that of `O=C(c1cccc(Cl)c1F)N1CCN(Cc2cccc(Nc3nccs3)n2)CC1` [MK-8745], 10.66 POC; in that of `O=C(O)c1ccc(Nc2ncc3c(n2)-c2ccc(Cl)cc2C(c2c(F)cccc2F)=NC3)cc1` [MLN8054], −12.87 POC. Still for that read-out and setting: for `COc1cc(Nc2ncc3c(n2)-c2ccc(Cl)cc2C(c2c(F)cccc2OC)=NC3)ccc1C(=O)O` [MLN8237 (Alisertib), Alisertib] the value was −25.51 POC; for `CC(C)c1ccc(-c2cc(=O)c3ccccc3o2)cc1` [MN 64], −7.835 POC.

For the compound `CNCCN1CCC(OCc2ccccc2)CC1.Cl.Cl` [MS049 (hydrochloride)], the “Non Amp - AMP (POC) 10 uM” value is −3.654 POC.

In the case of `Cc1cc(/N=N/c2ccc(S(=O)(=O)Nc3ccccn3)cc2)c(N)cc1O` [MS436], the “Non Amp - AMP (POC) 10 uM” value turned out to be 8.852 POC.

Consider `COC(=O)/C=C/C(=O)N(O)CCCCNCc1ccc(COC(=O)Nc2cccc3ccccc23)cc1` [Methylstat (hydrate), Methylstat], for which the “Non Amp - AMP (POC) 10 uM” value is −5.079 POC. The same measure, in the same setting: for `CO[C@@H]1[C@H](N(C)C(=O)c2ccccc2)C[C@H]2O[C@]1(C)n1c3ccccc3c3c4c(c5c6ccccc6n2c5c31)C(=O)NC4` [Midostaurin (PKC412), Midostaurin] the value was −9.891 POC; for `O=C1c2c(O)ccc(O)c2C(=O)c2c(NCCNCCO)ccc(NCCNCCO)c21` [Mitoxantrone HCl], 11.28 POC.

As for `O=c1c(-n2ccnn2)c[nH]n1-c1cc(N2CCOCC2)ncn1` [Molidustat (BAY85-3934), Molidustat], the “Non Amp - AMP (POC) 10 uM” value is −4.287 POC. Still for that read-out and setting: for `C[C@@H]1O[C@@H](Oc2c(-c3cc(O)c(O)c(O)c3)oc3cc(O)cc(O)c3c2=O)[C@H](O)[C@H](O)[C@H]1O` [Myricetrin] the value was −0.2723 POC.

On to `O=C(O)CNC(=O)C(=O)O` [N-Oxalylglycine], for which the “Non Amp - AMP (POC) 10 uM” value stood at 14.36 POC. Still for that read-out and setting: in the case of `COc1cc(C#N)ccc1S(=O)(=O)Nc1ccc2c(c1)cc(C)c(=O)n2C` [NI-57] it was 11.2 POC.

Staying with this experiment, now noted: 10 uM, 48 hrs; average relative cell viability (vs 1% DMSO) of non-amplified cells (OVSAHO, CAOV3) minus that of MYC-HSF1 amplified cells (OVCAR8, OVCAR4); positive = greater response in amplified cells; 10 µM.
As to `O=C(O)c1ccc(O)c2ncccc12` [IOX1], the “Non Amp - AMP (POC) 10 uM” value was 11.45 POC. On the same count and under the same terms, for `CCN(CC)Cc1ccc2cc(COC(=O)Nc3ccc(C(=O)NO)cc3)ccc2c1` [ITF 2357, Givinostat] the value was 40.35 POC. The same measure, in the same setting: for `Clc1ccc(N/N=C(\c2ccccc2)c2ccccn2)nc1` [JIB-04] the value was 13.4 POC and 8.34 POC; for `Cn1cc(CNCC2CCN(c3ncc(C(=O)NO)cn3)CC2)c2ccccc21` [JNJ-26481585], 38.34 POC and 26.25 POC; for `C[S+]([O-])CCCCN=C=S` [L-Sulforaphane], −5.74 POC. With `O=C(/C=C/c1ccc(CN(CCO)CCc2c[nH]c3ccccc23)cc1)NO` [LAQ824, Dacinostat], the “Non Amp - AMP (POC) 10 uM” value is 43.86 POC. On the same count and under the same terms, for `Cc1cc(C)cc(C(=O)NOCCCCCC(=O)NO)c1` [LMK 235] the value was 44.96 POC and 34.77 POC. Same read-out and setting: for `Cn1c(/C=C/C(=O)NO)ccc1/C=C/C(=O)c1cccc(F)c1` [MC 1568] the value was −4.947 POC; for `CCCc1cc2c(N3CCN(C4=NCC(C)(C)S4)CC3)ncnc2s1` [MI-2 (hydrochloride)], 6.017 POC; for `CCCc1cc2c(N3CCN(C4=NCC(C)(C)S4)CC3)ncnc2s1` [MI-2], 8.542 POC. Still for that read-out and setting: in the case of `CN(C)CCCNC(=O)c1ccc(-c2cc(O)c3ncccc3c2)cc1` [ML-324] it was 7.484 POC; in that of `CCC(CC)(NC(=O)C(C)C)C(=O)N[C@@H](CCCN=C(N)N)C(=O)NC1(C(=O)NC(c2ccc(F)cc2)c2ccc(F)cc2)CCCC1` [MM-102], 10.41 POC and 6.837 POC. `CC(C)Oc1ccc(-c2c[nH]cc2CN(C)CCN)cc1` [MS023 (hydrochloride)]: the “Non Amp - AMP (POC) 10 uM” value came to 6.531 POC. Same read-out and setting: in the case of `CC(C)Oc1ccc(-c2c[nH]cc2CN(C)CCN)cc1` [MS023] it was −0.6323 POC; in that of `Nc1ccccc1NC(=O)c1ccc(CNc2nccc(-c3cccnc3)n2)cc1` [Mocetinostat], 49.31 POC; in that of `CC(C)C(=O)SCCCCCCC(=O)Nc1nc(-c2ccccc2)cs1` [NCH-51], 27.52 POC.

The same experiment, now with this note: 10 uM, 48 hrs; average relative cell viability (vs 1% DMSO) of non-amplified cells (OVSAHO, CAOV3) minus that of MYC-HSF1 amplified cells (OVCAR8, OVCAR4); positive = greater response in amplified cells; listed as IOX 1, 10 µM.
On to `O=C(O)c1ccc(O)c2ncccc12` [IOX1], for which the “Non Amp - AMP (POC) 10 uM” value is 2.198 POC.

The same experiment, now with this note: 10 uM, 48 hrs; average relative cell viability (vs 1% DMSO) of non-amplified cells (OVSAHO, CAOV3) minus that of MYC-HSF1 amplified cells (OVCAR8, OVCAR4); positive = greater response in amplified cells; listed as ITF2357 (Givinostat), 10 µM.
Consider `CCN(CC)Cc1ccc2cc(COC(=O)Nc3ccc(C(=O)NO)cc3)ccc2c1` [ITF 2357, Givinostat], for which the “Non Amp - AMP (POC) 10 uM” value is 13.67 POC.

The same experiment, now with this note: 10 uM, 48 hrs; average relative cell viability (vs 1% DMSO) of non-amplified cells (OVSAHO, CAOV3) minus that of MYC-HSF1 amplified cells (OVCAR8, OVCAR4); positive = greater response in amplified cells; listed as LAQ824 (NVP-LAQ824, Dacinostat), 10 µM.
Regarding `O=C(/C=C/c1ccc(CN(CCO)CCc2c[nH]c3ccccc23)cc1)NO` [LAQ824, Dacinostat], the “Non Amp - AMP (POC) 10 uM” value came to 28.82 POC.

Staying with this experiment, now noted: 10 uM, 48 hrs; average relative cell viability (vs 1% DMSO) of non-amplified cells (OVSAHO, CAOV3) minus that of MYC-HSF1 amplified cells (OVCAR8, OVCAR4); positive = greater response in amplified cells; listed as MC1568, 10 µM.
With `Cn1c(/C=C/C(=O)NO)ccc1/C=C/C(=O)c1cccc(F)c1` [MC 1568], the “Non Amp - AMP (POC) 10 uM” value is recorded as −17.78 POC.

Still in this experiment, the particulars now being: 10 uM, 48 hrs; average relative cell viability (vs 1% DMSO) of non-amplified cells (OVSAHO, CAOV3) minus that of MYC-HSF1 amplified cells (OVCAR8, OVCAR4); positive = greater response in amplified cells; listed as ML324, 10 µM.
For the compound `CN(C)CCCNC(=O)c1ccc(-c2cc(O)c3ncccc3c2)cc1` [ML-324], the “Non Amp - AMP (POC) 10 uM” value amounted to 4.315 POC.

The same experiment, now with this note: 10 uM, 48 hrs; average relative cell viability (vs 1% DMSO) of non-amplified cells (OVSAHO, CAOV3) minus that of MYC-HSF1 amplified cells (OVCAR8, OVCAR4); positive = greater response in amplified cells; listed as Mocetinostat (MGCD0103, MG0103), 10 µM.
As to `Nc1ccccc1NC(=O)c1ccc(CNc2nccc(-c3cccnc3)n2)cc1` [Mocetinostat], the “Non Amp - AMP (POC) 10 uM” value stood at 36.88 POC.

Still in this experiment, the particulars now being: 10 uM, 48 hrs; average relative cell viability (vs 1% DMSO) of non-amplified cells (OVSAHO, CAOV3) minus that of MYC-HSF1 amplified cells (OVCAR8, OVCAR4); positive = greater response in amplified cells; listed as NCH 51, 10 µM.
As to `CC(C)C(=O)SCCCCCCC(=O)Nc1nc(-c2ccccc2)cs1` [NCH-51], the “Non Amp - AMP (POC) 10 uM” value is on record as 9.119 POC.
